Test results: US11873298B2, “Compounds and uses thereof” (JANSSEN PHARMACEUTICA NV, priority 2017, dated 2024)

Experiments:
SCD1 = molecular target: T1, SCD1 (Homo sapiens, UniProt O00767); test: Growth inhibition of humanized yeast strain expressing SCD1 as sole desaturase; type: cell-based
T1 construct: host or cells: S. cerevisiae ole1Δ strain (W303 pdr1Δ pdr3Δ background), plasmid pRS316 with TDH3 promoter and CYC1 terminator
T1 sequence (O00767 1-359): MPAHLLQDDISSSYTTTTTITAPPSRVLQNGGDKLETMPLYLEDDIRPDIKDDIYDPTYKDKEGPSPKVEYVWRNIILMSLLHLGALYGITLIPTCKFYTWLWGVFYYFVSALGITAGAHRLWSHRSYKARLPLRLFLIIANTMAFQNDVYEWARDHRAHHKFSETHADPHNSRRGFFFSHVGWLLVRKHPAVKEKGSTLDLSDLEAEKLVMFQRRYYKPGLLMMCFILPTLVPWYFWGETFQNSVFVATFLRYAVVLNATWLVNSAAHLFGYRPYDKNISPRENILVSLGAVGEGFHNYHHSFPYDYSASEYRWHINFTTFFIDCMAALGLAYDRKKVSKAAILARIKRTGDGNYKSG
Protocol: (§1) Strain oleΔ (yeast ole1 deletion mutant) was constructed by deleting OLE1 with NAT-MX6 in BY4741, amplifying the deletion cassette from the genomic DNA of the resulting strain with primers flanking the ORF by 1000 bp upstream and downstream, transforming the resulting deletion cassette into W303 pdr1Δ pdr3Δ, and plating transformants on YPD media containing G418 (200 μg/mL) and nourseothricin ([…]) with 0.01% TWEEN®-20 and 0.5 mM oleic and palmitoleic acids.
(§2) The coding sequence of yeast OLE1 was also cloned into this plasmid). These clones were then transformed into the ole1Δ strain and plated on CSM-Ura media (CSM lacking uracil) with 2% glucose (w/v) and independent colonies were isolated and amplified.
(§3) All compound profiling experiments were performed using the same basic protocol. Different genetic backgrounds (e.g., gene deletions) or conditions (e.g., addition of oleic and palmitoleic acid) were replaced as indicated below.
(§4) Yeast were cultured using standard techniques in complete synthetic media (CSM) and yeast nitrogen base supplemented with 2% (w/v) carbon source (glucose, raffinose, or galactose) to regulate the expression of the toxic disease protein. An initial starter culture was inoculated in 3 mL CSM-Glucose media and incubated overnight in a 30° C. shaker incubator (225 rpm). Saturated morning cultures were then diluted 1:20 in fresh CSM-Raffinose media and grown for 6 h to an OD600 (optical density) of ˜0.4-0.8 at 30° C. with shaking.
(§5) Compound administration was performed in two separate steps. First, 15 μL of CSM-Galactose (induces expression of toxic protein) was dispensed into clear 384 well assay plates using a MULTIDROP™ Combi reagent dispenser. […] The cultures described above were then diluted to a 2× concentration (0.03 and 0.08 for alpha-synuclein and ApoE, final ODsoo of 0.015 and 0.04) in CSM-Galactose. For wild-type and Ole1/SCD1/SCD5 plasmid-containing strains, the 2× cell density was 0.02. […] For 96-well assays (FIGS. 1A and 1B), compound dilutions in DMSO were generated in 96 well plates and 1 μL was manually pipetted into 96 well clear bottom assay plates.
(§6) For experiments using a plasmid-borne copy of Ole1, SCD1, or SCD5 (FIGS. 3B, 6, and 7), media lacking uracil (SX-Ura, where X is glucose, raffinose, or galactose), was used for all steps of the compound profiling protocol to ensure its maintenance throughout the assay.
(§7) After yeast delivery, assay plates were incubated under humidified conditions at 30° C. for 24 to 40 h. ApoE4 rescue experiments were stopped at 24 h, aSyn experiments at 40 h, Ole1 at 24 h, and SCD1/SCD5 at 40 h. The growth of yeast was monitored by reading the ODsoo of each well using a microplate reader (Perkin Elmer EnVision™).

SCD5 = molecular target: T2, SCD5 (Homo sapiens, UniProt Q86SK9); test: Growth inhibition of humanized yeast strain expressing SCD5 as sole desaturase; type: cell-based
T2 construct: host or cells: S. cerevisiae ole1Δ strain (W303 pdr1Δ pdr3Δ background), plasmid pRS316 with TDH3 promoter and CYC1 terminator
T2 sequence (Q86SK9 1-330): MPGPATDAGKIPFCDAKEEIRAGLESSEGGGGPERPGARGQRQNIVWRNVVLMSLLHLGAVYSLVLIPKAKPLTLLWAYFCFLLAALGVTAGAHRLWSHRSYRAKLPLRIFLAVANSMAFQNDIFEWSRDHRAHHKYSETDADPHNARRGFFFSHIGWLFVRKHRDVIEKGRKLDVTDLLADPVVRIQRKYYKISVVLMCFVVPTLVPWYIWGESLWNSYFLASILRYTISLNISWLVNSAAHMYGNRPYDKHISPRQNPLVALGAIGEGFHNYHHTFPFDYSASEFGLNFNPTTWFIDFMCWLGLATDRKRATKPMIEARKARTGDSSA
Protocol: as §1, §2, §3, §4, §5, §6, §7

[1] = growth inhibition of humanized yeast strain expressing human SCD1
[2] = growth inhibition of humanized yeast strain expressing human SCD5
[3] = humanized yeast strain expressing SCD5

Row | SMILES | IC50 (SCD1; humanized yeast strain, 40 h) | IC50 (SCD5; humanized yeast strain, 40 h) | also measured
1 | O=C(c1ccccc1F)N1CCN(c2noc(-c3ccc4cnn(C5CNC5)c4c3)n2)CC1 [Compound 957] | 27.9 µM | 0.01 µM | 
2 | CCOC(=O)N1CCN(c2nc(-c3ccc4cnn(C(C)C)c4c3)no2)CC1 [Compound 668] |  |  | IC50 (SCD1; [1]): > 45 µM; IC50 (SCD5; [2]): 0.719 µM
3 | C=Cc1nn(C(C)C)c2cc(-c3noc(C4CCN(C(=O)OC(C)(C)C)CC4)n3)ccc12 [Compound 653] |  |  | IC50 (SCD1; [1]): > 45 µM; IC50 (SCD5; [2]): > 45 µM
4 | O=C(c1ccccc1F)N1CCC(c2noc(-c3ccnc(C4CCOC4)c3)n2)CC1 (stereo not drawn) [Compound 1099] | > 45 µM | 1.88 µM | 
5 | CC(C)(C)OC(=O)N1CCC(c2nc(-c3cccc(C4CCOC4)c3)no2)CC1 (stereo not drawn) [Compound 658] |  |  | IC50 (SCD1; [1]): > 45 µM; IC50 (SCD5; [2]): 0.089 µM
6 | O=C(C1CCC1)N1CCC(c2noc(-c3cc(F)c4cnn(C5COC5)c4c3)n2)CC1 [Compound 1061] | > 45 µM | 0.01 µM | 
7 | CC(C)(C)OC(=O)N1CCC(c2noc(-c3cc(C4CCOC4)ccn3)n2)CC1 (stereo not drawn) [Compound 1192] | > 45 µM | 0.04 µM | 
8 | CC(C)(C)OC(=O)N1CCN(c2noc(-c3cccc(C4CCCO4)c3)n2)CC1 (stereo not drawn) [Compound 785] | 9.21 µM | 0.041 µM | 
9 | CC1(OC(=O)N2CCC(c3nnc(-c4ccc5cnn(C6CCOC6)c5c4)o3)CC2)CC1 (stereo not drawn) [Compound 986] | > 45 µM | 0.048 µM | 
10 | COC(=O)N1CCC(c2noc(-c3cc(Br)c4cnn(C5COC5)c4c3)n2)CC1 [Compound 1043] | > 45 µM | 0.011 µM | 
11 | CC(C)(C)OC(=O)N1CCC(c2nc(-c3ccc4cnn(C(C)(C)CO)c4c3)no2)CC1 [Compound 736] |  |  | IC50 (SCD1; [1]): 32.6 µM; IC50 (SCD5; [2]): 0.26 µM
12 | CC(C)(C)OC(=O)N1CCC(c2noc(-c3ccc4oc(=O)[nH]c4c3)n2)CC1 [Compound 1009] | > 45 µM | 9.51 µM | 
13 | CC(C)n1cc2c(n1)CN(c1noc(C3CCN(C(=O)OC(C)(C)C)CC3)n1)CC2 [Compound 826] | > 45 µM | 1.99 µM | 
14 | O=C(CC1CC1)N1CCN(c2noc(-c3ccc4cnn(C5COC5)c4c3)n2)CC1 [Compound 839] | > 45 µM | 0.035 µM | 
15 | CC(CF)n1ncc2ccc(-c3noc(C4CCN(C(=O)OC5(C)CC5)CC4)n3)cc21 (stereo not drawn) [Compound 607] |  |  | IC50 (SCD1; [1]): > 45 µM; IC50 (SCD5; [2]): 0.511 µM
16 | CC(C)(C)CC(=O)N1CCC(c2nc(-c3ccc4cn(C(=O)C5CC5)nc4c3)no2)CC1 [Compound 674] |  |  | IC50 (SCD1; [1]): > 45 µM; IC50 (SCD5; [2]): > 45 µM
17 | Cc1nn(C)c2cc(-c3noc(C4CCN(C(=O)CNC(=O)c5ccc(C#N)cc5)CC4(F)F)n3)ccc12 (stereo not drawn) [Compound 601] |  |  | IC50 (SCD1; humanized yeast strain expressing SCD1): > 45 µM; IC50 (SCD5; [3]): 5.69 µM
18 | CC(C)(C)OC(=O)N1CCC(c2cc(-c3ccc4cnn(C5COC5)c4c3)on2)CC1 [Compound 1026] | 3.98 µM | 0.2 µM | 
19 | O=C(C1CCC1)N1CCC(c2cc(-c3cc4c(cn3)cnn4C3COC3)on2)CC1 [Compound 1109] | > 45 µM | 0.05 µM | 
20 | CC(C)(C)OC(=O)N1CCC(c2nc(N3CCC34COC4)no2)CC1 [Compound 783] | > 45 µM | > 45 µM | 
21 | COC(=O)N1CCC(c2noc(-c3ccc4cnn([C@@H]5CCOC5)c4c3)n2)CC1 [Compound 876] | > 45 µM |  | 
22 | CC1(OC(=O)N2CCC(c3noc(-c4ccc5cnn([C@H]6CCOC6)c5c4)n3)CC2)CC1 [Compound 1209] |  |  | IC50 (SCD1; yeast strain expressing human SCD1 as sole desaturase, Table 8): 12.6 µM
23 | COC(=O)N1CCC(c2noc(-c3ccc4cnn([C@@H]5CCOC5)c4c3)n2)CC1 [Compound 877] | > 45 µM |  | 
24 | CC(C)OC(=O)N1CCC(c2nc(-c3ccc4oc(=O)n(C(C)C)c4c3)no2)CC1 [Compound 507] |  |  | IC50 (SCD5; [3]): 2.44 µM
25 | COC(=O)N1CCC2(CC1)CN(c1nc(-c3ccc4cnn(C(C)C)c4c3)no1)C2 [Compound 570] |  |  | IC50 (SCD5; [3]): 26.3 µM
